Results published in patent US11578072B2, “Spiro-lactam NMDA receptor modulators and uses thereof” (Aptinyx Inc., priority 2018, dated 2023).

Assays:
NMDAR2A = biological target: T1, NMDAR2A (Homo sapiens, UniProt Q12879); experiment: NMDAR agonist assay, [3H]MK-801 binding, NMDAR2A expressing HEK cell membranes; format: biochemical; parameters: key to NMDAR2A B: log EC50: 0=−; >1×10^−9 M (e.g., −8)=+; <1×10^−9 M (e.g., −10)++; details: 50 μM glutamate; for EC50: read-out: NMDAR2A B: log EC50 (converted)
T1 construct: expressed in transfected cells; host or cells: HEK cells (membrane extract)
Description: (§1) Assays were conducted as described by Moskal et al., “GLYX-13: a monoclonal antibody-derived peptide that acts as an N-methyl-D-aspartate receptor modulator,” Neuropharmacology, 49, 1077-87, 2005. These studies were designed to determine if the test compounds act to facilitate NMDAR activation in NMDAR2A, NMDAR2B, NMDAR2C or NMDAR2D expressing HEK cell membranes as measured by increases in [3H]MK-801 binding.
(§2) In the assay, 300 μg of NMDAR expressing HEK cell membrane extract protein was preincubated for 15 minutes at 25° C. in the presence of saturating concentrations of glutamate (50 μM) and varying concentrations of test compound (1×10^−15M-1×10^−7M), or 1 mM glycine. Following the addition of 0.3 μCi of [3H]MK-801 (22.5 Ci/mmol), reactions were again incubated for 15 minutes at 25° C. (nonequilibrium conditions). Bound and free [3H]MK-801 were separated via rapid filtration using a Brandel apparatus.
(§3) In analyzing the data, the DPM (disintegrations per minute) of [3H]MK-801 remaining on the filter were measured for each concentration of test compound or for 1 mM glycine. The DPM values for each concentration of a ligand (N=2) were averaged. The baseline value was determined from the best fit curve of the DPM values modeled using the GraphPad program and the log(agonist) vs. response(three parameters) algorithm was then subtracted from all points in the dataset. The % maximal [3H]MK-801 binding was then calculated relative to that of 1 mM glycine: all baseline subtracted DPM values were divided by the average value for 1 mM glycine. The EC50 and % maximal activity were then obtained from the best fit curve of the % maximal [3H]MK-801 binding data modelled using the GraphPad program and the log(agonist) vs. response(three parameters) algorithm.
(§4) The tables below summarize the results for the wild type NMDAR agonists NMDAR2A, NMDAR2B, NMDAR2C, and NMDAR2D, and whether the compound is not an agonist (−), is an agonist (+), or is a strong agonist (++), where column A is based on the % maximal [3H]MK-801 binding relative to 1 mM glycine (−=0; <100%=+; and >100%=++); and column B is based on log EC50 values (0=−; >1×10^−9 M (e.g., −8)=+; and <1×10^−9 M (e.g., −10)++).

Plasma stability (Human) = format: in vitro ADME; details: after 60 minutes
Description: (§5) Plasma stability of disclosed compounds was investigated. The following table indicates the percent of compound remaining after 60 minutes.

[1] = Microsomal stability (Human); format: in vitro ADME; details: human microsomes, after 60 minutes
Description: (§6) Microsomal stability of disclosed compounds was investigated. The following table indicates the percent of compound remaining after 60 minutes.

[2] = IV pharmacokinetics in rats; details: Sprague Dawley, in vivo, rat, 2 mg/kg, normal saline; for Vd: read-out: Vss
Description: Sprague Dawley rats were dosed intravenously using a normal saline formulation containing 2 mg/kg of the compounds identified in the below table. The table below summarizes the results of the IV pharmacokinetics.

[3] = Microsomal stability (Rat); format: in vitro ADME; details: rat microsomes, after 60 minutes
Description: as §6

[4] = Oral pharmacokinetics in rats (plasma, brain, CSF); format: in vivo, Sprague Dawley rats; details: rat, oral gavage, 10 mg/kg; for bioavailability / AUC(0-t) / Cmax / Tmax: Sprague Dawley, plasma
Description: In another experiment, Sprague Dawley rats were dosed per os (oral gavage) using a normal saline formulation containing 10 mg/kg of the compounds identified in the table below. Plasma, brain, and CSF samples were analyzed at various time points over a 24 hour period. The table below summarizes the results of the oral pharmacokinetics, where the first three values (Tmax, Cmax and AUClast) are plasma values.

NMDAR2B = biological target: T2, NMDAR2B (Homo sapiens, UniProt Q13224); experiment: NMDAR agonist assay, [3H]MK-801 binding, NMDAR2B expressing HEK cell membranes; format: biochemical; details: 50 μM glutamate; for EC50: read-out: NMDAR2B B: log EC50 (converted)
T2 construct: expressed in transfected cells; host or cells: HEK cells (membrane extract)
Description: as §1, §2, §3, §4

NMDAR2D [5] = biological target: T3, NMDAR2D (Homo sapiens, UniProt O15399); experiment: NMDAR agonist assay, [3H]MK-801 binding, NMDAR2D expressing HEK cell membranes; format: biochemical; details: 50 μM glutamate
T3 construct: expressed in transfected cells; host or cells: HEK cells (membrane extract)
Description: as §1, §2, §3, §4

NMDAR2D [6] = biological target: T4, NMDAR2D (Homo sapiens, UniProt O15399+Q05586); experiment: as above; format: biochemical; details: 50 μM glutamate, read-out: NMDAR2D B: log EC50 (converted)
T4 construct: expressed in transfected cells; host or cells: HEK cells (membrane extract)
Description: as §1, §2, §3, §4

Plasma stability (Rat) = format: in vitro ADME; details: after 60 minutes
Description: as §5

Sprague Dawley rats = experiment: Bennett nerve injury assay (mechanical analgesia, paw withdrawal threshold); format: in vivo; details: 150 mg/kg PO
Description: The Bennett model of mechanical analgesia is used to assess the analgesic effects of compounds as measured by paw withdrawal threshold. Bennett G J, Xie Y K, “A peripheral mononeuropathy in rat that produces disorders of pain sensation like those seen in man,” Pain 33:87-107, 1988. […] Vehicle animals receive the surgery and then receive vehicle rather than test compound. Animals were tested 1 hr, 24 h and 1 wk post-test compound or vehicle administration.
Male 2-3 month old Sprague Dawley rats were used. Harlan was the supplier for all studies. Rats were housed in Lucite cages with aspen wood chip bedding, maintained on a 12:12 light:dark cycle (lights on at 5 AM), and given ad libitum access to Purina lab chow (USA) and tap water throughout the study.
Rats were anesthetized using inhaled isoflurane (2.5%). Sciatic nerve chronic constriction nerve injury surgery was performed as previously described (Bennett and Xie, 1988). An incision (˜1.5 cm in length) was made with a scalpel blade dorsally through skin on the right hind limb, parallel and posterior to femur. Using a small pointed hemostat, the biceps femoris and gluteus superficialis muscles were separated. Using curved blunt forceps, the common sciatic nerve was isolated and exposed. For the mechanical analgesia studies, the whole sciatic nerve was ligated. Using hemostats/forceps and chromic gut (5-0), the nerve was loosely ligated with a square knot; 3 ligatures, 1 mm apart were placed on the nerve. […] Testing occurred approximately 2 weeks post-surgery.
During testing, rats were acclimated to the surface of a suspended wire mesh grid (1 cm×1 cm, with the wire being 0.3 cm in diameter) for 15-20 min. Starting from the smallest, each Von Frey filament was pressed perpendicularly to the plantar surface of the affected (ipsilateral) hind paw until slightly bent and then held for 6 second. If an obvious hind paw withdrawal or a flinching behavior immediately after the withdrawal of the filament was not observed, the next larger filament was used in the same manner. In case of a response, a lower filament was used. This was repeated until six responses were collected.
For all studies, animals were baselined prior to study start to test for allodynia (defined as a paw withdrawal threshold under 5). A subset of animals was tested with gabapentin (150 mg/kg, PO) to ensure at least 50% analgesia. Once it was confirmed animals were ready for study initiation, animals were balanced across groups. All study investigators were blind to treatment conditions. Animals were dosed with 0.1, 1 or 10 mg/kg of test compound via oral gavage (PO), control sets of animals were dosed with gabapentin (150 mg/kg, PO) or vehicle (0.5% Na-CMC in 0.9% sterile saline, PO). Testing occurred 1 h post-dosing with animals retested 24 hrs and 1 week post-dosing. The percent analgesia calculations for each animal were made using the following equation: % analgesia=[(log(x)−y)/((log (z)−y)]*100, where x=the paw withdrawal threshold for the drug-treated animal in grams, y=the average of the log(x) values for the vehicle treated group, and z=the paw withdrawal threshold for naïve animals in grams (historical value of 15 used). The results for Compound AD, where the percentage of analgesia is measured at 1 hour, 24 hours, and 1 week after compound administration are as follows: for 0.1 mg/kg dose: 38.7% at 1 h, 34.5% at 24 h, and 19.7% at 1 wk; for 1 mg/kg dose: 24.1% at 1 h, 26.5% at 24 h, and 13.2% at 1 wk; and for 10 mg/kg dose: 61.2% at 1 h, 45.1% at 24 h, and 39.5% at 1 wk.

T2 sequence (Q13224 27-1484, species assumed, other chains not shown): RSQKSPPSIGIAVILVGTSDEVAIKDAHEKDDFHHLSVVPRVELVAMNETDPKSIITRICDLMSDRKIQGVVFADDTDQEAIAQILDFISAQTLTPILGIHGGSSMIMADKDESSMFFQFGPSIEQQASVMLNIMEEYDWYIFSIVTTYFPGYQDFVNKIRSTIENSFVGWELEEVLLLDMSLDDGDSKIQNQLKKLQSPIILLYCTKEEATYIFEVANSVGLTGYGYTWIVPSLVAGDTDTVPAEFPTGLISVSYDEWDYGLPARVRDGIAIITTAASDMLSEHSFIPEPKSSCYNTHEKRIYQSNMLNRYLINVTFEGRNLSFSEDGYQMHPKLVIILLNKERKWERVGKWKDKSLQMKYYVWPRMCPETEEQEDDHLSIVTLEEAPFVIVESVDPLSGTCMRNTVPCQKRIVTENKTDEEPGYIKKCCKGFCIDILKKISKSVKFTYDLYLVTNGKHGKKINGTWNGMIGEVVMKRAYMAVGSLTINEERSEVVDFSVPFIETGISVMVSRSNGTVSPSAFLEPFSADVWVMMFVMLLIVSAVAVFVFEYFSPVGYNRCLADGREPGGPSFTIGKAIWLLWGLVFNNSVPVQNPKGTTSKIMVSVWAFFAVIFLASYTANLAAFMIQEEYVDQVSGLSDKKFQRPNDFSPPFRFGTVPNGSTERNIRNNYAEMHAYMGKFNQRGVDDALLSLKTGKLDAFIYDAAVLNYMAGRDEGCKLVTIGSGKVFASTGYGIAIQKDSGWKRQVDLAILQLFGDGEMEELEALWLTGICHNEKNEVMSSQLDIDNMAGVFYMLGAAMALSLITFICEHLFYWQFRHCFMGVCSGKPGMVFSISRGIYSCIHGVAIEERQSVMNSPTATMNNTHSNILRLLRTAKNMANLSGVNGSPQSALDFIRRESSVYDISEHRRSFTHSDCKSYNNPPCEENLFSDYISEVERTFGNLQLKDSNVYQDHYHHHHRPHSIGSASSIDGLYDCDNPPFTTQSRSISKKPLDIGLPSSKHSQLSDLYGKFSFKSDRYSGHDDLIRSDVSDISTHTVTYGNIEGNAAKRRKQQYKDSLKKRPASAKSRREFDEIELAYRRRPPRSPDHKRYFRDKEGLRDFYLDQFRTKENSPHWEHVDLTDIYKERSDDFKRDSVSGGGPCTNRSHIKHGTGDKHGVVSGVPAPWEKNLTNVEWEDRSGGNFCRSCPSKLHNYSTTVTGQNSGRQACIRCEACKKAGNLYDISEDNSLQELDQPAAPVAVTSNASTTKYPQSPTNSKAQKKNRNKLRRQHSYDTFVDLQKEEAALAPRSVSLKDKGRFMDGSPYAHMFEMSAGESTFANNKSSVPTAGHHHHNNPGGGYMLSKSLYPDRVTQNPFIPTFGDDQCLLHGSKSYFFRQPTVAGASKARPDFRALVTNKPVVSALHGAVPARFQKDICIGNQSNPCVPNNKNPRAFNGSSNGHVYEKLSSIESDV
T1 sequence (Q12879 23-1464, species assumed, other chains not shown): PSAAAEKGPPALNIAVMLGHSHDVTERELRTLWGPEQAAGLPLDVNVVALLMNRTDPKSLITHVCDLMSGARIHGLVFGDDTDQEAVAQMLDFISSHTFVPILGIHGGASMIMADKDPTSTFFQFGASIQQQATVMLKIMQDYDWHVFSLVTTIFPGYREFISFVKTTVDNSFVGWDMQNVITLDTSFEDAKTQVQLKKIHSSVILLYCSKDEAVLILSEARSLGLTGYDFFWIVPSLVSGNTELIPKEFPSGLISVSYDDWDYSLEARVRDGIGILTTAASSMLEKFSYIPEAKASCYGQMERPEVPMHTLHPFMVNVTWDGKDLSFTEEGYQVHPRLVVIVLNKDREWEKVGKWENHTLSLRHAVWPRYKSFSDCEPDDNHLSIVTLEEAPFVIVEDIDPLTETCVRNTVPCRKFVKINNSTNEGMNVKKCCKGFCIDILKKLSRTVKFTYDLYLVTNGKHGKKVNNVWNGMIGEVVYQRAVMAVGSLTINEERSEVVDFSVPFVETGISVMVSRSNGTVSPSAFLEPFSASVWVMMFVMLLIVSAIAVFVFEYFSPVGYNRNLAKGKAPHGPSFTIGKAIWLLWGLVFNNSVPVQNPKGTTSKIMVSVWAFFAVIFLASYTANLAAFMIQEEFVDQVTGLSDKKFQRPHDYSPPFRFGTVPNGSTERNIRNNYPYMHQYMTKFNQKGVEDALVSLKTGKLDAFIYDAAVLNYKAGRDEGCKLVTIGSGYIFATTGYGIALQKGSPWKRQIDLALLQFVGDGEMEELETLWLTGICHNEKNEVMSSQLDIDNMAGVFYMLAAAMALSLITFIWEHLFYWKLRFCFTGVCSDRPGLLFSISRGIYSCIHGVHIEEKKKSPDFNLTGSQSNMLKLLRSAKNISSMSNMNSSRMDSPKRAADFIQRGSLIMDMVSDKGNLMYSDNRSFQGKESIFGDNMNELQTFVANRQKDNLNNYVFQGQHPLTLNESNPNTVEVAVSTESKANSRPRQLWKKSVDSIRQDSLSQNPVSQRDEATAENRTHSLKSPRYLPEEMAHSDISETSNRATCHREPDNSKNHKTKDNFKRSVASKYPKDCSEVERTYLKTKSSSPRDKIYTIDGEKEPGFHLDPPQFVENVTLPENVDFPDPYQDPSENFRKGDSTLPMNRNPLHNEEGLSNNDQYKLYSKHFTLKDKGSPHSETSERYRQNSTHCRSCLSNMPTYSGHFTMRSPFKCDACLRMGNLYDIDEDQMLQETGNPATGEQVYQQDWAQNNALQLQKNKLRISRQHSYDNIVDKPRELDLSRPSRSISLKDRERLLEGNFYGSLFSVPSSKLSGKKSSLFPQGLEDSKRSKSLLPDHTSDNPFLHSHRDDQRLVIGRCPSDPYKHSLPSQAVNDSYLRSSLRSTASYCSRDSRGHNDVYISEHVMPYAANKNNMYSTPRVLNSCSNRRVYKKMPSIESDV
T3 sequence (O15399 28-1336, species assumed, other chains not shown): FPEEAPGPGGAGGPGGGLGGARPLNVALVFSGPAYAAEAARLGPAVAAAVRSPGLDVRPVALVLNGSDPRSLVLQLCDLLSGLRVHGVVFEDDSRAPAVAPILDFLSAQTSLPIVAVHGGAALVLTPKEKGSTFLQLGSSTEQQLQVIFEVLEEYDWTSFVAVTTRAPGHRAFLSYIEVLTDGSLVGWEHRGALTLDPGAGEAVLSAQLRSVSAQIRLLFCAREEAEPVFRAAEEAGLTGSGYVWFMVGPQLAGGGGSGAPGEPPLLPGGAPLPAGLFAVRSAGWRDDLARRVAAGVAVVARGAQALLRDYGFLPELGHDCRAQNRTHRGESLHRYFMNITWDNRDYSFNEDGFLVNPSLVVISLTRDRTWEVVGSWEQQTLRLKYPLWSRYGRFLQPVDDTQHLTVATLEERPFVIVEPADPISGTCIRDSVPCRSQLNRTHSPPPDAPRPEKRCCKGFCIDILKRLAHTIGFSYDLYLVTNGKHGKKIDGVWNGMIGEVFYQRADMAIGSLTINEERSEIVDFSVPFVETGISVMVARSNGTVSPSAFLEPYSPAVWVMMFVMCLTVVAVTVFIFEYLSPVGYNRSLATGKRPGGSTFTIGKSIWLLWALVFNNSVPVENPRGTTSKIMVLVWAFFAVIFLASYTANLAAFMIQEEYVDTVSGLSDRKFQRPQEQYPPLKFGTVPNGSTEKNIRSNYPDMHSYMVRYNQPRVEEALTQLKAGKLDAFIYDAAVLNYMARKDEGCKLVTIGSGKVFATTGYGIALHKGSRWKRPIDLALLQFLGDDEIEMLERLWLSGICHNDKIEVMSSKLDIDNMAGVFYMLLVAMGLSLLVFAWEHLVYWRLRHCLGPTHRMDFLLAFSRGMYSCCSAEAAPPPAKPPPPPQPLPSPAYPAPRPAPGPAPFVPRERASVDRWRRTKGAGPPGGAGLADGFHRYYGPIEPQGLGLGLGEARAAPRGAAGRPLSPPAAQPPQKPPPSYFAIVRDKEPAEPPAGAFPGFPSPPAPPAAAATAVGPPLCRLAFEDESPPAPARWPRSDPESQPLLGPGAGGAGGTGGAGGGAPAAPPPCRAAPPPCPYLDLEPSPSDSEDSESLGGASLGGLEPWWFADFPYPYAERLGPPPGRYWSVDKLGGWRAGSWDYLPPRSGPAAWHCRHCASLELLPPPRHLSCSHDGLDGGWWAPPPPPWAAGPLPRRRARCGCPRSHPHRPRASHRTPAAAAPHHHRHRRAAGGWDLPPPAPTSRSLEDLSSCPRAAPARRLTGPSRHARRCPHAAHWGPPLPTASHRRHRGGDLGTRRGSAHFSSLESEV
T4 sequence (O15399 28-1336, species assumed, other chains not shown): as above

Row | Structure (SMILES) | NMDAR2A A: % maximal [3H]MK-801 binding relative to 1 mM glycine (NMDAR2A) | Plasma (Human): percent of compound remaining (Plasma stability (Human)) | Microsomal (Human): percent of compound remaining [1] | AUC(0-t) [2] | Cmax [2] | clearance [2] | half-life [2] | Vd [2] | Microsomal (Rat): percent of compound remaining [3] | bioavailability [4] | AUC(0-t) [4] | Cmax [4] | Tmax [4] | CSF Cmax [4] | Brain Cmax [4] | NMDAR2B A: % maximal [3H]MK-801 binding relative to 1 mM glycine (NMDAR2B) | EC50 (NMDAR2B) | Plasma (Rat): percent of compound remaining (Plasma stability (Rat)) | EC50 (NMDAR2A) | also measured
1 | O=C(O)C(F)(F)F.O=C1NCCCC12CCNCC2 [AA, 2,9-diazaspiro[5.5]undecan-1-one] | − (−=0) | 97% | 96% | 1160 ng·h/mL | 2660 ng/mL | 28.4 mL/min/kg | 2 h | 1.76 L/kg | 91% | 18% | 1020 ng·h/mL | 325 ng/mL | 2.11 h | 12 ng/mL | 0 ng/mL | + (<100%=+) | < 1 nM | 84% |  | NMDAR2A B: log EC50 (NMDAR2A): −; NMDAR2D A: % maximal [3H]MK-801 binding relative to 1 mM glycine (NMDAR2D [5]): ++ (>100%=++); EC50 (NMDAR2D [6]): < 1 nM
2 | CC(C)(C)OC(=O)N1CCC2(CCCNC2=O)CC1 [AC, tert-butyl 1-oxo-2,9-diazaspiro[5.5]undecane-9-carboxylate] | + (<100%=+) | 100% | 100% | 845 ng·h/mL | 5660 ng/mL | 39.5 mL/min/kg | 0.12 h | 0.31 L/kg | 96% | 44% | 1860 ng·h/mL | 3630 ng/mL | 0.25 h | 261 ng/mL | 298 ng/mL | + (<100%=+) | < 1 nM | 100% | > 1 nM | 
3 | O=C1NCCCCC12CCNCC2 [AG, 3,8-diazaspiro[5.6]dodecan-7-one] | + (<100%=+) |  |  |  |  |  |  |  |  |  |  |  |  |  |  | + (<100%=+) | < 1 nM |  | < 1 nM | 
4 | NCC1(CC(=O)O)CCCCC1 [gabapentin, reference compound] |  |  |  |  |  |  |  |  |  |  |  |  |  |  |  |  |  |  |  | % analgesia (Sprague Dawley rats; 1 week post-administration, control group of the study): under 5%; % analgesia (Sprague Dawley rats; 1 wk, example (typical) control values): 0%; % analgesia (Sprague Dawley rats; 1 h, example (typical) control values): 77%; % analgesia (Sprague Dawley rats; 1 h post-administration, control group of the study): at least 50%; % analgesia (Sprague Dawley rats; 24 h, example (typical) control values): 17%; % analgesia (Sprague Dawley rats; 24 h post-administration, control group of the study): under 5%
